# In ChEMBL document CHEMBL4138253, “Synthesis and Biological Evaluation of a Series of Bile Acid Derivatives as FXR Agonists for Treatment of NASH” (ACS Med Chem Lett, 2017):
# pEC50: −log10 of the molar value.
# Legend:
# [1] = organism: Homo sapiens; assay: Selectivity ratio of EC50 for recombinant human GST-tagged FXR LBD (193 to 472 residues) expressed in baculovirus-infected insect cells to EC50 for human TGR5 expressed in HEK293 cells
# [2] = target: T1, Bile acid receptor (Homo sapiens) (UniProt Q96RI1); assay: Agonist activity at recombinant human GST-tagged FXR LBD (193 to 472 residues) expressed in baculovirus-infected insect cells assessed as recruitment of biotinylated SRC1 peptide measured after 1 hr by Alphascreen assay relative to CDCA
# T1 sequence (whole entry): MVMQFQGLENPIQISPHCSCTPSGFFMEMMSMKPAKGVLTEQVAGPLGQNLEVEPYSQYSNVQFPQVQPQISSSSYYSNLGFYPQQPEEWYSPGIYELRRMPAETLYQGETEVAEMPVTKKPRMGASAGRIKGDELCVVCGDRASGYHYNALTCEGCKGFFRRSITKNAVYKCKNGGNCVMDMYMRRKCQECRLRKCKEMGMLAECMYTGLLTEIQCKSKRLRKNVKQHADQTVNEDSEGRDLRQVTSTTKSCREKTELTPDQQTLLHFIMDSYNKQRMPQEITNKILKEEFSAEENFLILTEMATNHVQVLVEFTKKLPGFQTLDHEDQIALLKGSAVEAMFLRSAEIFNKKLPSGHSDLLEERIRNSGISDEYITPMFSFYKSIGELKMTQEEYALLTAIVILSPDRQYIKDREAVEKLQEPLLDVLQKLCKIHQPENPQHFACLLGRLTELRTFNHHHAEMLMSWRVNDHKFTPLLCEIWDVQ
# [3] = target: T2, G-protein coupled bile acid receptor 1 (Homo sapiens, UniProt Q8TDU6); assay: Agonist activity at human TGR5 expressed in HEK293 cells assessed as increase in intracellular cAMP level after 1 hr by TR-FRET assay; type: functional, cell-based
# T2 sequence (Q8TDU6 whole entry): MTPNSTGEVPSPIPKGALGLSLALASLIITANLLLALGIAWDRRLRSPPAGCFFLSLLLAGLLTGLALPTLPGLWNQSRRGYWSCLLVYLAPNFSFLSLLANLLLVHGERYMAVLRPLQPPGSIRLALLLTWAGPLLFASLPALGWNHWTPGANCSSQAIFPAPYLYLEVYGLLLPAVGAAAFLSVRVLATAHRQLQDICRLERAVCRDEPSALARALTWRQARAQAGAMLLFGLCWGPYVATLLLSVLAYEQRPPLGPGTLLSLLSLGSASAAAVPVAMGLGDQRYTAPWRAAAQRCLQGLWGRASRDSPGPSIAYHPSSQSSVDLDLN
# [4] = target: T3, Bile acid receptor (Homo sapiens, UniProt Q96RI1); assay: Agonist activity at recombinant human GST-tagged FXR LBD (193 to 472 residues) expressed in baculovirus-infected insect cells assessed as recruitment of biotinylated SRC1 peptide measured after 1 hr by Alphascreen assay
# T3 sequence (Q96RI1 whole entry): T1 sequence (whole entry)
# [5] = target: T1, Bile acid receptor (Homo sapiens); assay: Agonist activity at FXR (unknown origin) measured after 16 hrs in presence of CCF4-AM dye by cell-based GeneBlazer FRET assay relative to CDCA
# [6] = target: T3, Bile acid receptor; assay: Agonist activity at FXR (unknown origin) measured after 16 hrs in presence of CCF4-AM dye by cell-based GeneBlazer FRET assay
# [7] = Drug level in C57BL/6 mouse plasma at 2 mg/kg, po administered as single cassette dose via gavage measured at 3 hrs post dose by LC-MS/MS analysis; type: ADME, organism-based
# [8] = Ratio of drug level in liver to plasma in C57BL/6 mouse at 2 mg/kg, po administered as single cassette dose via gavage measured at 3 hrs post dose; type: ADME, organism-based
# [9] = Ratio of drug level in liver to plasma in C57BL/6 mouse at 2 mg/kg, po administered as single cassette dose via gavage measured at 0.5 hrs post dose; type: ADME, organism-based
# [10] = Drug level in C57BL/6 mouse liver at 2 mg/kg, po administered as single cassette dose via gavage measured at 3 hrs post dose by LC-MS/MS analysis; type: ADME, organism-based; details: in vivo
# [11] = Drug level in C57BL/6 mouse plasma at 2 mg/kg, po administered as single dose via gavage measured at 0.5 hrs post dose by LC-MS/MS analysis; type: ADME, organism-based
# [12] = Drug level in C57BL/6 mouse liver at 2 mg/kg, po administered as single cassette dose via gavage measured at 0.5 hrs post dose by LC-MS/MS analysis; type: ADME, organism-based; details: in vivo
structure (smiles),measurement,setting,value
CC[C@H]1[C@@H](O)[C@@H]2[C@H](CC[C@]3(C)[C@@H]([C@H](C)CCc4nn[nH]n4)CC[C@@H]23)[C@@]2(C)CC[C@@H](O)C[C@@H]12,Ratio EC50,[1],30
same,Efficacy,[2],153%
CC[C@H]1[C@@H](O)[C@@H]2[C@H](CC[C@]3(C)[C@@H]([C@H](C)CCNC(=O)N4CC[C@H](O)C4)CC[C@@H]23)[C@@]2(C)CC[C@@H](O)C[C@@H]12,Ratio EC50,[1],2
same,pEC50,[3],6.80
same,Efficacy,[2],115%
same,pEC50,[4],7.10
CC[C@H]1[C@@H](O)[C@@H]2[C@H](CC[C@]3(C)[C@@H]([C@H](C)CCNC(=O)OCc4cccs4)CC[C@@H]23)[C@@]2(C)CC[C@@H](O)C[C@@H]12,Efficacy,[5],168%
same,pEC50,[6],6.96
same,Efficacy,[2],142%
same,pEC50,[4],6.64
CCOC(=O)NCC[C@@H](C)[C@H]1CC[C@H]2[C@@H]3[C@H](O)[C@H](CC)[C@@H]4C[C@H](O)CC[C@]4(C)[C@H]3CC[C@]12C,Efficacy,[5],174%
same,Ratio EC50,[1],1
same,pEC50,[6],7.00
same,pEC50,[3],6.55
same,Efficacy,[2],138%
same,pEC50,[4],6.55
CC[C@H]1[C@@H](O)[C@@H]2[C@H](CC[C@]3(C)[C@@H]([C@H](C)CCNC(=O)C(=O)O)CC[C@@H]23)[C@@]2(C)CC[C@@H](O)C[C@@H]12,Ratio EC50,[1],12
same,concentration at 3 h,[7],38 nM
same,pEC50,[3],6.62
same,Kp at 3 h,[8],36
same,Efficacy,[2],109%
same,Kp at 0.5 h,[9],13
same,Drug uptake,[10],1363 nmol/kg
same,concentration at 0.5 h,[11],21 nM
same,pEC50,[4],7.70
same,Drug uptake,[12],277 nmol/kg
CC[C@H]1[C@@H](O)[C@@H]2[C@H](CC[C@]3(C)[C@@H]([C@H](C)CCc4nnn[nH]4)CC[C@@H]23)[C@@]2(C)CC[C@@H](O)C[C@@H]12,concentration at 3 h,[7],19 nM
same,pEC50,[3],5.75
same,Kp at 3 h,[8],76
same,Kp at 0.5 h,[9],7
same,Drug uptake,[10],1443 nmol/kg
same,concentration at 0.5 h,[11],868 nM
same,pEC50,[4],7.22
same,Drug uptake,[12],5693 nmol/kg
CC[C@H]1[C@@H](O)[C@@H]2[C@H](CC[C@]3(C)[C@@H]([C@H](C)CCNC(=O)O[C@H]4CCOC4)CC[C@@H]23)[C@@]2(C)CC[C@@H](O)C[C@@H]12,Efficacy,[5],167%
same,Ratio EC50,[1],3
same,pEC50,[6],7.10
same,pEC50,[3],6.62
same,Efficacy,[2],109%
same,pEC50,[4],7.05
CC[C@H]1[C@@H](O)[C@@H]2[C@H](CC[C@]3(C)[C@@H]([C@H](C)CCC(=O)O)CC[C@@H]23)[C@@]2(C)CCCC[C@@H]12,Efficacy,[2],126%
same,pEC50,[4],6.40
CC[C@H]1[C@@H](O)[C@@H]2[C@H](CC[C@]3(C)[C@@H]([C@H](C)CCc4cc(O)no4)CC[C@@H]23)[C@@]2(C)CC[C@@H](O)C[C@@H]12,Ratio EC50,[1],17
same,concentration at 3 h,[7],6 nM
same,pEC50,[3],6.28
same,Kp at 3 h,[8],43
same,Efficacy,[2],121%
same,Kp at 0.5 h,[9],44
same,Drug uptake,[10],257 nmol/kg
same,concentration at 0.5 h,[11],43 nM
same,pEC50,[4],7.52
same,Drug uptake,[12],1896 nmol/kg
CC[C@H]1[C@@H](O)[C@@H]2[C@H](CC[C@]3(C)[C@@H]([C@H](C)CCNC(=O)OCc4ccccc4)CC[C@@H]23)[C@@]2(C)CC[C@@H](O)C[C@@H]12,Efficacy,[2],130%
same,pEC50,[4],6.52
CC[C@H]1[C@@H](O)[C@@H]2[C@H](CC[C@]3(C)[C@@H]([C@H](C)CCC4NC(=O)NC4=O)CC[C@@H]23)[C@@]2(C)CC[C@@H](O)C[C@@H]12 (some centres undefined),Efficacy,[2],202%
same,pEC50,[4],5.57
CC[C@H]1[C@@H](O)[C@@H]2[C@H](CC[C@]3(C)[C@@H]([C@H](C)CCNC(=O)OC4CCCCC4)CC[C@@H]23)[C@@]2(C)CC[C@@H](O)C[C@@H]12,Efficacy,[2],140%
same,pEC50,[4],6.52
CC[C@H]1[C@@H](O)[C@@H]2[C@H](CC[C@]3(C)[C@@H]([C@H](C)CCNC(=O)O[C@@H]4CCOC4)CC[C@@H]23)[C@@]2(C)CC[C@@H](O)C[C@@H]12,Efficacy,[5],170%
same,pEC50,[6],7.10
same,Efficacy,[2],100%
same,pEC50,[4],6.92
CC[C@H]1[C@@H](O)[C@@H]2[C@H](CC[C@]3(C)[C@@H]([C@H](C)CCNC(=O)OC)CC[C@@H]23)[C@@]2(C)CC[C@@H](O)C[C@@H]12,Efficacy,[2],149%
same,pEC50,[4],6.52
CC[C@H]1[C@@H](O)[C@@H]2[C@H](CC[C@]3(C)[C@@H]([C@H](C)CCC(=O)O)CC[C@@H]23)[C@@]2(C)CCC3(CC3)C[C@@H]12,Efficacy,[2],68%
same,pEC50,[4],6.15
CC[C@H]1[C@@H](O)[C@@H]2[C@H](CC[C@]3(C)[C@@H]([C@H](C)CCNS(=O)(=O)c4ccccc4)CC[C@@H]23)[C@@]2(C)CC[C@@H](O)C[C@@H]12,Efficacy,[2],117%
same,pEC50,[4],6.33
CC[C@H]1[C@@H](O)[C@@H]2[C@H](CC[C@]3(C)[C@@H]([C@H](C)CCNC(C)=O)CC[C@@H]23)[C@@]2(C)CC[C@@H](O)C[C@@H]12,Efficacy,[2],81%
same,pEC50,[4],6.82
CC[C@H]1[C@@H](O)[C@@H]2[C@H](CC[C@]3(C)[C@@H]([C@H](C)CCNC(=O)NC4CC4)CC[C@@H]23)[C@@]2(C)CC[C@@H](O)C[C@@H]12,Ratio EC50,[1],6
same,pEC50,[3],6.38
same,Efficacy,[2],104%
same,pEC50,[4],7.15
